The results in this text go back to patent publication US11672785B2, “Tetrahydro-1H-pyrido [3,4-b]indole anti-estrogenic drugs” (Olema Pharmaceuticals, Inc., priority 2015, dated 2023).

Entries after “also recorded” stand apart in the source; their conditions may differ. Like-named read-outs stand apart in the source and are kept apart here.

The test system of data set [1] is estrogen-responsive reporter gene, ERE-tk109-Luc. The experiment in a line: Inhibition of E2-induced transcription, ERE-tk109-Luc reporter in transfected MCF-7 cells. In kind it is cell-based. As to conditions: Homo sapiens, MCF7. The procedure: Representative compounds were tested for their inhibitory activity of estrogen according to the assay methods described in Hodges-Gallagher, L., Valentine, C. […] Specifically, MCF-7 cells were transiently transfected with an estrogen-responsive reporter gene, ERE-tk109-Luc. […] Luciferase activity was normalized to activity of E2 alone and IC50's were calculated using the least squares fit method.

The subject of data set [2] is MCF-7 breast cancer cells. The experiment in a line: Inhibition of E2-stimulated proliferation of MCF-7 cells (Cyquant). The settings on record: Homo sapiens, MCF7. In kind it is cell-based. The method, then:
Proliferation of MCF-7 breast cancer cells was measured using Cyquant, a fluorescent DNA-binding dye (Thermo Fisher Scientific). MCF-7 cells were treated with antiestrogens in triplicate in hormone-depleted medium for 5-7 days in the presence of 100 pM E2. Fluorescent activity was normalized to the activity of E2 alone and IC50's were calculated using the least squares fit method.

A short description of data set [3]: Free fraction of drug in human plasma, rapid equilibrium dialysis. In kind it is in vitro ADME. The source says: (§1) Method for detecting free fraction of drug in plasma: Compounds were screened for binding to human and mouse plasma (Bioreclamation, IVT) using a rapid equilibrium dialysis device (Thermo Fisher Scientific) and compounds subsequently detected by LC-MS/MS. Percent free drug equals the concentration of compound in buffer chamber divided by that in the […] chamber×100.
For orientation: In equilibrium dialysis only unbound substance equilibrates across the membrane.

Data set [4] in a line: Free fraction of drug in mouse plasma, rapid equilibrium dialysis. In kind it is in vitro ADME.
Text: as §1

The target in data set [5] is T1, ERα (Homo sapiens (Human), UniProt P03372). Put plainly: ERα levels in MCF-7 cells, in-cell western (Colorimetric In-Cell ELISA). In kind it is cell-based. As to conditions: for Relative change in ERα levels in breast cells % Veh: MCF-7, 24 hours. The method, then:
IC50's were calculated using the least squares fit method. Error bars represent S.E.M from triplicate wells.
Background: An ELISA detects its analyte on a solid surface through an enzyme-linked reagent.

The next data set relates to MCF-7 (HER2/neu) tumors. The experiment in a line: Xenograft study, Clone 18 (MCF7/Her2/neu) tumors in athymic ovariectomized nu/nu mice. In kind it is in vivo. As to conditions: oral gavage, 10 mg/kg, FIGS. 5A-B. The method, then: Xenograft studies were conducted by the Preclinical Therapeutics Core at the University of California, San Francisco in accordance with the Institutional Animal Care and Use Committee (IACUC) guidelines. Clone 18 cells (MCF7/Her2/neu) cells were grown in culture and implanted into athymic ovariectomized nu/nu mice. To stimulate tumor growth 0.36 mg estradiol 90 day release pellets (Innovative Research, Saratoga, Fla.) were implanted along with cells. When tumors reached 150-250 cubic millimeters the pellets were exchanged for 0.18 mg estradiol 90 day release pellets and divided into groups of six mice per treatment group. One of those groups received vehicle only (0.5% CMC+8% DMSO), and Compound B and Compound C each had 2 groups treated with either 10 or 100 mg/kg compound. Compounds were administered by oral gavage twice daily, except once daily on weekends/holidays for the first 21 days, and once daily after day 21. Tumors and bodyweight were measured twice weekly.

The target in data set [6] is T1, ERα. Put plainly: ER degradation in MCF-7 cells, immunoblot. In kind it is cell-based. As to conditions: 100 nM, 24 hours, serum-free medium. The procedure:
MCF-7 cells were treated with 100 nM anti-estrogen for 24 hours in serum-free medium and protein extracts immunoblotted with D12 antibody to ERα and β-actin (Santa Cruz Biotechnology). The numbers below the blots represent the optical density of ERα bands of each treatment relative to percent vehicle after normalization to β-actin.

Data set [7] in a line: Pharmacokinetics in BALB/c female mice, oral gavage. In kind it is in vivo. The settings on record: for oral drug exposure, free fraction taken into account, vs equal dose of Compounds 107 and 102: mice, oral gavage, FIGS. 1A-1B. The procedure:
Pharmacokinetics were studied in BALB/c female mice. For each arm, three BALB/c female mice were given 5 mg/kg of compound in 0.5% CMC formulation by oral gavage. Concentration of compounds in mouse plasma and their metabolites were analyzed at each time point using LC-MS/MS. The concentrations were adjusted for the free fraction of drug in mouse plasma (method below). Area under the curve was calculated using the trapezoidal rule for 0-24 hours.

The subject of data set [8] is AP activity in ECC-1 cells. The experiment in a line: Alkaline phosphatase (AP) assay in ECC-1 uterine cells, antagonist mode (co-treated with 500 pM E2). In kind it is cell-based, human. The settings on record: 100 nM antiestrogen. The procedure:
Method for performing the alkaline phosphatase (AP) assay. ECC-1 cells were trypsinized and resuspended in hormone-depleted media and plated at a density of 15 k cells per well into a 96-well plate for at least 4 hours. Cells were treated with antiestrogens for 3 days and plates were subsequently frozen at −80° C. […] AP activity was normalized to the activity of E2 alone.

The subject of data set [9] is AP activity in ECC-1 cells. The experiment in a line: Alkaline phosphatase (AP) assay in ECC-1 uterine cells, agonist mode. In kind it is cell-based, human. The settings on record: mean of n. The procedure: Method for performing the alkaline phosphatase (AP) assay. ECC-1 cells were trypsinized and resuspended in hormone-depleted media and plated at a density of 15 k cells per well into a 96-well plate for at least 4 hours. Cells were treated with antiestrogens for 3 days and plates were subsequently frozen at −80° C. Thawed plates were incubated with a chromogenic substrate of AP, p-nitrophenyl phosphate (Thermo Fisher Scientific), for 40 minutes at 40° C. and absorbances were read at 405 nm. AP activity was normalized to the activity of E2 alone. […] A representative result for induction of AP activity in uterine cells (% E2) is shown below in tabular form: […]

Where [10] appears, read: MCF-7, 100 pM E2, 22 hours, read-out: inhibition of E2-induced transcription in breast cells IC50.
Where [11] appears, read: MCF-7, 100 pM E2, 5-7 days, read-out: inhibition of E2-stimulated proliferation in breast cells IC50.
Setting [12] is: Table 1, read-out: ERE-Luc IC50.
[13] abbreviates: mean of n, read-out: Inhibition of E2-stimulated transcription in breast cells pIC50 (converted).
Setting [14] is: BALB/c mice, 5 mg/kg oral gavage.
Where [15] appears, read: Table 1, read-out: MCF-7 Proliferation IC50.
Where [16] appears, read: mean of n, read-out: Inhibition of E2-stimulated proliferation in breast cells pIC50 (converted).

T1 sequence (P03372 whole entry): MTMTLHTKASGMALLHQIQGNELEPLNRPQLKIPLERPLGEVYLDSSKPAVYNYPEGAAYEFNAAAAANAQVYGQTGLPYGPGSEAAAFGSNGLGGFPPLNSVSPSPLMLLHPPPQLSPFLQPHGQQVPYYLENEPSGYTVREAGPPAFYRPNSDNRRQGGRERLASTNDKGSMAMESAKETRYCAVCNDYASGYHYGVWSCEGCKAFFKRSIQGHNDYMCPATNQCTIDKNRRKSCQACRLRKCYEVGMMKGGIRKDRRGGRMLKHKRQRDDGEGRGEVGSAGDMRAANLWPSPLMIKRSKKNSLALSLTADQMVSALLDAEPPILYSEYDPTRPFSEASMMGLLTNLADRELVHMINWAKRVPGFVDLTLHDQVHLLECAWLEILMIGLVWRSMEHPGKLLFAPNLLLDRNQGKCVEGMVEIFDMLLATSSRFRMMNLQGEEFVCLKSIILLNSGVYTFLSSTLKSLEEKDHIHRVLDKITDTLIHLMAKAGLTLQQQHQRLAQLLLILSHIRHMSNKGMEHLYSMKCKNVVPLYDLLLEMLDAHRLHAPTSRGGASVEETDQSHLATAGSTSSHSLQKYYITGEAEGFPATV

For `Oc1ccc2c(c1)CC[C@H](c1ccccc1)[C@@H]2c1ccc(OCCN2CCCC2)cc1` [Lasofoxifene, reference compound], the IC50 was determined as 4.6 nM in data set [1] (setting [10]) and 11 nM in data set [2] (setting [11]).
`C[C@@H]1Cc2c([nH]c3ccccc23)[C@@H](c2c(F)cc(/C=C/C(=O)O)cc2F)N1CC(C)(C)F` [AZD9496, (E)-3-(3,5-Difluoro-4-((1R,3R)-2-(2-fluoro-2-methylpropyl)-3-methyl-2,3,4,9-tetrahydro-1H-pyrido[3,4-b]indol-1-yl)phenyl)acrylic Acid, reference compound]: the fraction unbound in [3] came to 0.00308; in [4], 0.00214. In addition, the figures for the IC50 in data set [1] (setting [10]), in data set [1] (setting [12]) and in data set [1] (setting [13]) were 0.2 nM, 0.2 nM and 0.631 nM, respectively.
On to `CCCN1CC(Oc2ccc([C@@H]3c4[nH]c5ccccc5c4C[C@@H](C)N3CC(C)(C)F)cc2)C1` [Compound B, (1R,3R)-2-(2-fluoro-2-methylpropyl)-3-methyl-1-(4-((1-propylazetidin-3-yl)oxy)phenyl)-2,3,4,9-tetrahydro-1H-pyrido[3,4-b]indole], for which the “ER degradation in MCF-7 cells (in-cell western, FIG. 2)” value on ERα [5] (24 hours) is “degrades the estrogen receptor”. Also, the “Relative change in ERα levels in breast cells % Veh” value on ERα [5] is on record as 45 % Veh. The fraction unbound in [3] is 0.00036; in data set [4], 0.00027. Besides, the “tumor shrinkage in xenografted mice” value with MCF-7 (HER2/neu) tumors is “outstandingly potent in shrinking human breast cancer xenografts; also recorded: shrinks MCF-7 (HER2/neu) tumors”. Further, at ERα [6], the “ER degradation in MCF-7 cells (immunoblot, FIG. 7)” value is listed as “degrades the estrogen receptor”. In [7] (setting [14]), the “24 hour drug exposure compared to other compounds” value was “better”. Further, the half-life result in data set [7] (setting [14]) is “high”. For the same compound, the oral bioavailability entry in [7] (setting [14]) is “high”. In data set [7], the “oral drug exposure, free fraction taken into account, vs equal dose of Compounds 107 and 102” value was “substantially higher”. Also, the IC50 in data set [1] (setting [10]) is 4.35 nM; in [1] (setting [12]), 4.35 nM; in data set [1] (setting [13]), 4.37 nM; in data set [2] (setting [11]), 4.53 nM; in data set [2] (setting [15]) it was 4.53 nM; in data set [2] (setting [16]), 7.76 nM.
In the case of `C[C@@H]1Cc2c([nH]c3ccccc23)[C@@H](c2c(F)cc(OCCN3CC(CF)C3)cc2F)N1CC(C)(C)F` [Compound D, (1R,3R)-1-(2,6-difluoro-4-(2-(3-(fluoromethyl)azetidin-1-yl)ethoxy)phenyl)-2-(2-fluoro-2-methylpropyl)-3-methyl-2,3,4,9-tetrahydro-1H-pyrido[3,4-b]indole], the “residual AP activity in uterine cells (% of E2 alone)” value in [8] turned out to be 4.07 % E2. Besides, the fraction unbound in data set [3] worked out at 0.00044; in [4], 0.00036. Further, the IC50 in data set [1] (setting [10]) was 10 nM; in data set [1] (setting [12]), 10 nM; in data set [1] (setting [13]), 9.55 nM; in [2] (setting [11]), 8.4 nM; in data set [2] (setting [15]) it was 8.4 nM; in data set [2] (setting [16]), 10.5 nM.
`C[C@]12CC[C@@H]3c4ccc(O)cc4C[C@@H](CCCCCCCCC[S+]([O-])CCCC(F)(F)C(F)(F)F)[C@H]3[C@@H]1CC[C@@H]2O` (stereo partly drawn) [Fulvestrant, reference compound] yielded a fraction unbound in [3] of 1e-05. In addition, the IC50 is 1.4 nM in [1] (setting [10]), 1.91 nM in data set [1] (setting [13]), 2.1 nM in [2] (setting [11]) and 2.63 nM in data set [2] (setting [16]).
For the compound `C[C@@H]1Cc2c([nH]c3ccccc23)[C@@H](c2ccc(OCCN3CC(CF)C3)cc2)N1CC(C)(C)F` [Compound C, (1R,3R)-2-(2-fluoro-2-methylpropyl)-1-(4-(2-(3-(fluoromethyl)azetidin-1-yl)ethoxy)phenyl)-3-methyl-2,3,4,9-tetrahydro-1H-pyrido[3,4-b]indole], on ERα [5], the “Relative change in ERα levels in breast cells % Veh” value was 42 % Veh. In addition, the fraction unbound in data set [3] came out at 0.00151; in data set [4], 0.00092. In addition, the “tumor shrinkage in xenografted mice” value in the data set with MCF-7 (HER2/neu) tumors was “outstandingly potent in shrinking human breast cancer xenografts”. Moreover, in data set [7], the “oral drug exposure, free fraction taken into account, vs equal dose of Compounds 107 and 102” value is listed as “substantially higher”. Besides, the IC50 is 10.7 nM in data set [1] (setting [10]); 10.7 nM in data set [1] (setting [12]); 8.13 nM in data set [1] (setting [13]); 1.3 nM in data set [2] (setting [11]); 14.5 nM in data set [2] (setting [15]); 11.7 nM in data set [2] (setting [16]).
Turning to `CCCN1CC(Oc2ccc([C@@H]3c4[nH]c5ccccc5c4C[C@@H](C)N3CC(C)(C)F)cc2F)C1` [Compound A, (1R,3R)-2-(2-fluoro-2-methylpropyl)-1-(3-fluoro-4-((1-propylazetidin-3-yl)oxy)phenyl)-3-methyl-2,3,4,9-tetrahydro-1H-pyrido[3,4-b]indole], the IC50 came out at 2.96 nM in data set [1] (setting [10]), 2.96 nM in data set [1] (setting [12]), 7.58 nM in data set [2] (setting [11]) and 7.58 nM in data set [2] (setting [15]).
As to `CCCN1CC(Oc2cc(F)c([C@@H]3c4[nH]c5ccccc5c4C[C@@H](C)N3CC(C)(C)F)c(F)c2)C1` [Goodacre Compound 107, (1R,3R)-1-(2,6-difluoro-4-((1-propylazetidin-3-yl)oxy)phenyl)-2-(2-fluoro-2-methylpropyl)-3-methyl-2,3,4,9-tetrahydro-1H-pyrido[3,4-b]indole, reference compound], the fraction unbound amounted to 0.00013 in data set [3] and 0.00012 in data set [4]. In addition, the “Induction of Alkaline Phosphatase (AP) % E2” value in data set [9] turned out to be 0.00 % E2. In addition, the results for the IC50 in data set [1] (setting [13]) and in data set [2] (setting [16]) were 4.37 nM and 7.59 nM, respectively.
